# Laboratory results taken from article PMC6858373 (Scientific Reports, 2019).
# Where two headings read alike, the source gives them in different places.
# Columns and labels:
# [1] = target: T1, FGF14:Nav1.6 C-tail complex (Homo sapiens, UniProt Q92915+Q9UQD0); experiment: Split-luciferase complementation assay (LCA) in Clone V double stable HEK293 cells; assay type: cell-based; conditions: for Z-score (LCA primary screening): 30 µM, average of primary screening (n = 2), vs on-plate 0.3% DMSO; for Z-score (LCA primary screening) / IMin (% Luminescence) / EMax (% Luminescence): 384-well; for IMin (% Luminescence): antagonists; for IMin (% Luminescence) / EMax (% Luminescence): normalized to DMSO; for EMax (% Luminescence): agonists; for EC50: read-out: EC50
# T1 construct: polymerase chain reaction (PCR) amplification of the FGF14 open reading frame (nt 1–855); C-terminal fragment of Nav1.6 (amino acids 1763–1976) fused with CD4ΔC-tail (amino acids 1–395); expressed in transfected cells
# T1 sequence (Q92915 1-252 isoform Q92915-2): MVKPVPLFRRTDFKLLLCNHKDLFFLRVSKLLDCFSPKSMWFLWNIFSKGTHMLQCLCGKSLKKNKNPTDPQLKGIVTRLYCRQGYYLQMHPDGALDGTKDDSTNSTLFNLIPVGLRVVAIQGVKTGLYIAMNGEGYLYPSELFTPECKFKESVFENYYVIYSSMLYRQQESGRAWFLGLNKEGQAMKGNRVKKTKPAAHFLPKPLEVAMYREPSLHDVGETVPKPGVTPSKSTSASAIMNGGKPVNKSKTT
# T1 sequence (Q9UQD0 1763-1976 limits assumed): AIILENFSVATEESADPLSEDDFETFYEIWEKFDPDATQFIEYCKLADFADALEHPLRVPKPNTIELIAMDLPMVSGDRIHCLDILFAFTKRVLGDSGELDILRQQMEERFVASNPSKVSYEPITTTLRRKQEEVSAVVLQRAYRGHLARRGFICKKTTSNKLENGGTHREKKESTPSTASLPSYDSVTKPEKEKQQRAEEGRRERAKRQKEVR
# [2] = target: full-length P. pyralis luciferase (Photinus pyralis, UniProt P08659, K549A/L550V/N119G/N50D/S548I); assay type: cell-based
# full-length P. pyralis luciferase, sequence (P08659 whole entry N50D/N119G/S548I/K549A/L550V, looked up): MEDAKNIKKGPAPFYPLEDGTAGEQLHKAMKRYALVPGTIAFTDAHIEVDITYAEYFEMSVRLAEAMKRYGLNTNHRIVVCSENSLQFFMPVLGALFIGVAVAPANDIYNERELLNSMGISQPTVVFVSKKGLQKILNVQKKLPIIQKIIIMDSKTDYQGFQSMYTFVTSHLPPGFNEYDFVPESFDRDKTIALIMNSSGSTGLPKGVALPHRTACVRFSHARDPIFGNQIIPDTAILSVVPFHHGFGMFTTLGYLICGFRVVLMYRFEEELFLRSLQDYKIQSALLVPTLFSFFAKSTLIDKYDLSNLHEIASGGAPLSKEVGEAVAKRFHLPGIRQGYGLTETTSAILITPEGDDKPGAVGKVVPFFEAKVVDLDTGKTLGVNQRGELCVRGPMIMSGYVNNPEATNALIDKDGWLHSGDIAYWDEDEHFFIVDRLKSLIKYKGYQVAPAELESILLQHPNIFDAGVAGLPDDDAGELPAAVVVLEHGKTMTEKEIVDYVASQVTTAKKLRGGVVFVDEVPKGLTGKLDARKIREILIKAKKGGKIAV
# [3] = CC_NCI screening, LCA luminescence, biological replicate Set 1, normalized to on-plate 0.3% DMSO controls (n=16 per plate)
# [4] = CC_NCI screening, LCA luminescence, biological replicate Set 2, normalized to on-plate 0.3% DMSO controls (n=16 per plate)
# [5] = CC_NCI screening, LCA, biological replicate Set 1, normalized to on-plate 0.3% DMSO controls
# [6] = CC_NCI screening, LCA, biological replicate Set 2, normalized to on-plate 0.3% DMSO controls
# [7] = CC_NCI screening, average of Set 1 and Set 2, normalized to 0.3% DMSO controls
# [8] = CC_NCI screening, full-length luciferase counter-screen luminescence, normalized to on-plate 0.3% DMSO controls
# [9] = CC_NCI screening, full-length luciferase counter-screen, normalized to on-plate 0.3% DMSO controls
# [10] = CC_NCI screening, biological replicate Set 1, normalized to on-plate 0.3% DMSO controls
# [11] = CC_NCI screening, biological replicate Set 1, normalized to on-plate 0.3% DMSO controls (n=16 per plate)
# [12] = CC_NCI screening, biological replicate Set 2, normalized to on-plate 0.3% DMSO controls
# [13] = CC_NCI screening, biological replicate Set 2, normalized to on-plate 0.3% DMSO controls (n=16 per plate)
# [14] = average of Set 1 and Set 2, normalized to 0.3% DMSO controls
# [15] = CC_NCI screening, normalized to on-plate 0.3% DMSO controls
# [16] = estimated, 8-point dose response 0.25-30 µM, n = 4 per concentration, library compounds, read-out: IC50
# [17] = estimated, 8-point dose response 0.25-30 µM, n = 4 per concentration, library compounds
molecule,measurement,setting,value
CCCCCCCCCCCCSc1nc2c([nH]1)c(=O)n(C)c(=O)n2C,Split Luciferase Assay % Lum Set 1,[1]; [3],112.30%
same,Split Luciferase Assay %Lum Set 2,[1]; [4],118.60%
same,Split Luciferase Assay Z-score Set 1,[1]; [5],0.99
same,Split Luciferase Assay Z-score Set 2,[1]; [6],1.51
same,Split Luciferase Assay %Lum Avg,[1]; [7],115.45%
same,Luciferase Assay % Lum,[2]; [8],103.16%
same,Luciferase Assay Z-score,[2]; [9],0.40
same,Toxicity Assay % Fluor,Clone V cells,93.89%
same,Toxicity Assay Z-score,Clone V cells,-0.85
NC(=O)c1ccc2nc(-c3ccc(Oc4ccc(Cl)cc4)cc3)[nH]c2c1 [CHK2 INHIBITOR II],Toxicity Assay % Fluor (CTB cell viability fluorescence),Clone V cells,112.91%
same,Toxicity Assay Z-score (CTB cell viability),Clone V cells,1.80
O=c1cc(N2CCOCC2)nc2c3ccccc3ccn12 [COMPOUND 401],Split Luciferase Assay Z-score Set 1,[1]; [10],-0.15
same,Split Luciferase Assay % Lum Set 1,[1]; [11],98.17%
same,Split Luciferase Assay Z-score Set 2,[1]; [12],-0.43
same,Split Luciferase Assay %Lum Set 2,[1]; [13],94.67%
same,Split Luciferase Assay %Lum Avg,[1]; [14],96.42%
same,Luciferase Assay % Lum (full-length luciferase counter-screen),[2]; [15],93.50%
same,Luciferase Assay Z-score (full-length luciferase counter-screen),[2]; [15],-0.83
N.N.[Cl][Pt][Cl] [Cisplatin],Split Luciferase Assay % Lum Set 1,[1]; [3],89.47%
same,Split Luciferase Assay %Lum Set 2,[1]; [4],98.83%
same,Split Luciferase Assay Z-score Set 1,[1]; [5],-0.85
same,Split Luciferase Assay Z-score Set 2,[1]; [6],-0.10
same,Split Luciferase Assay %Lum Avg,[1]; [7],94.15%
same,Luciferase Assay % Lum,[2]; [8],99.37%
same,Luciferase Assay Z-score,[2]; [9],-0.08
CS(=O)(=O)N1CCN(Cc2cc3nc(-c4cccc5[nH]ncc45)nc(N4CCOCC4)c3s2)CC1 [GDC 0941],Luciferase Assay % Lum (full-length luciferase counter-screen),[2]; [15],84.36%
same,Luciferase Assay Z-score (full-length luciferase counter-screen),[2]; [15],-2.00
"CCn1c(-c2nonc2N)nc2cnc(Oc3cccc(NC(=O)c4ccc(OCCN5CCOCC5)cc4)c3)cc21 [GSK 269962 A, reference compound]",Z-score (LCA primary screening),[1],−5.77
same,IMin (% Luminescence),[1]; Clone V cells,28.81 % Luminescence
same,IC50,[1]; [16],24.7 µM
Cc1ccc(NC(=O)c2ccc(CN3CCN(C)CC3)cc2)cc1Nc1nccc(-c2cccnc2)n1 [Imatinib],Luciferase Assay % Lum,[2],90.17%
same,Luciferase Assay Z-score,[2],-1.26
CCc1c2c(nc3ccc(OC(=O)N4CCC(N5CCCCC5)CC4)cc13)-c1cc3c(c(=O)n1C2)COC(=O)[C@]3(O)CC.Cl [Irinotecan hydrochloride],Luciferase Assay % Lum,[2]; [8],96.04%
same,Luciferase Assay Z-score,[2]; [9],-0.51
"O=[N+]([O-])/C=C/c1ccc2c(c1)OCO2 [MNS, reference compound]",IC50,"[1]; 384-well plates, range 0.625 - 25 μM, n=16 per concentration (Supplementary Fig. S1A), read-out: Estimated IC50",13.3 µM
same,% luminescence (normalized mean and SD),"[1]; MNS 30 µM, Clone V cells, 96-well plates",10.8% ± 3.1%
same,IC50,"[1]; cell density 1 × 10^4 cells per 384-well, 8 concentrations 0.625-30 µM, read-out: IC50",3.96 µM
same,IC50,"[1]; cell density 2 × 10^4 cells per 384-well, 8 concentrations 0.625-30 µM, read-out: IC50",7.49 µM
same,IC50,"[1]; cell density 3 × 10^4 cells per 384-well, 8 concentrations 0.625-30 µM, read-out: IC50",9.82 µM
same,IC50,"[1]; cell density 4 × 10^4 cells per 384-well, 8 concentrations 0.625-30 µM, read-out: IC50",13.3 µM
same,"% maximal luminescence, full-length luciferase (normalized mean and SD)","[2]; MNS 30 µM, 96-well plates",96.8% ± 2.8%
O=C(NOC[C@H](O)CO)c1ccc(F)c(F)c1Nc1ccc(I)cc1F [PD 0325901],Toxicity Assay % Fluor,"Clone V cells; human, 16 h, 30 µM",83.92%
same,Toxicity Assay Z-score,"Clone V cells; human, 16 h, 30 µM",-2.25
"CNC(=O)c1cc(Oc2ccc(NC(=O)Nc3ccc(Cl)c(C(F)(F)F)c3)cc2)ccn1 [Sorafenib, reference compound]",Z-score (LCA primary screening),[1],−7.62
same,Split Luciferase Assay % Lum Set 1,[1]; [3],5.76%
same,Split Luciferase Assay % Lum Set 1,"[1]; CC_NCI screening, LCA luminescence, biological replicate Set 1, normalized to on-plate 0.3% DMSO controls (n=16 per plate), listed as SORAFENIB",4.67%
same,Split Luciferase Assay %Lum Set 2,[1]; [4],15.60%
same,Split Luciferase Assay %Lum Set 2,"[1]; CC_NCI screening, LCA luminescence, biological replicate Set 2, normalized to on-plate 0.3% DMSO controls (n=16 per plate), listed as SORAFENIB",7.28%
same,Split Luciferase Assay Z-score Set 1,[1]; [5],-7.62
same,Split Luciferase Assay Z-score Set 1,"[1]; CC_NCI screening, LCA, biological replicate Set 1, normalized to on-plate 0.3% DMSO controls, listed as SORAFENIB",-7.70
same,Split Luciferase Assay Z-score Set 2,[1]; [6],-6.87
same,Split Luciferase Assay Z-score Set 2,"[1]; CC_NCI screening, LCA, biological replicate Set 2, normalized to on-plate 0.3% DMSO controls, listed as SORAFENIB",-7.54
same,Split Luciferase Assay %Lum Avg,[1]; [7],10.68%
same,Split Luciferase Assay %Lum Avg,"[1]; CC_NCI screening, average of Set 1 and Set 2, normalized to 0.3% DMSO controls, listed as SORAFENIB",5.98%
same,IMin (% Luminescence),[1]; Clone V cells,5.98 % Luminescence
same,IC50,[1]; [16],3.98 µM
same,Luciferase Assay % Lum,[2]; [8],88.55%
same,Luciferase Assay % Lum,"[2]; CC_NCI screening, full-length luciferase counter-screen luminescence, normalized to on-plate 0.3% DMSO controls, listed as SORAFENIB",91.34%
same,Luciferase Assay Z-score,[2]; [9],-1.47
same,Luciferase Assay Z-score,"[2]; CC_NCI screening, full-length luciferase counter-screen, normalized to on-plate 0.3% DMSO controls, listed as SORAFENIB",-1.11
CCN(CC)CCNC(=O)c1c(C)[nH]c(/C=C2\C(=O)Nc3ccc(F)cc32)c1C [Sunitinib],Split Luciferase Assay % Lum Set 1,[1]; [3],68.81%
same,Split Luciferase Assay %Lum Set 2,[1]; [4],72.82%
same,Split Luciferase Assay Z-score Set 1,[1]; [5],-2.52
same,Split Luciferase Assay Z-score Set 2,[1]; [6],-2.21
same,Split Luciferase Assay %Lum Avg,[1]; [7],70.82%
same,Luciferase Assay % Lum,[2]; [8],95.10%
same,Luciferase Assay Z-score,[2]; [9],-0.63
COc1cc2c(N3CCN(C(=O)Nc4ccc(OC(C)C)cc4)CC3)ncnc2cc1OCCCN1CCCCC1 [TANDUTINIB],Split Luciferase Assay % Lum Set 1,[1]; [3],92.73%
same,Split Luciferase Assay %Lum Set 2,[1]; [4],92.59%
same,Split Luciferase Assay Z-score Set 1,[1]; [5],-0.59
same,Split Luciferase Assay Z-score Set 2,[1]; [6],-0.60
same,Split Luciferase Assay %Lum Avg,[1]; [7],92.66%
same,Luciferase Assay % Lum,[2]; [8],88.98%
same,Luciferase Assay Z-score,[2]; [9],-1.41
Oc1ncc(N(CCCl)CCCl)c(O)n1 [Uracil mustard],Split Luciferase Assay % Lum Set 1,[1],76.42%
same,Split Luciferase Assay %Lum Avg,[1],74.62%
same,Split Luciferase Assay %Lum Set 2,[1],72.82%
same,Split Luciferase Assay Z-score Set 1,[1],-1.91
same,Split Luciferase Assay Z-score Set 2,[1],-2.21
same,Luciferase Assay % Lum,[2],97.98%
same,Luciferase Assay Z-score,[2],-0.26
"CC[C@]1(O)C[C@@H]2CN(CCc3c([nH]c4ccccc34)[C@@](C(=O)OC)(c3cc4c(cc3OC)N(C)[C@H]3[C@@](O)(C(=O)OC)[C@H](OC(C)=O)[C@]5(CC)C=CCN6CC[C@]43[C@@H]65)C2)C1 [Vinblastine, reference compound]",Z-score (LCA primary screening),[1],7.42
same,EMax (% Luminescence),[1]; Clone V cells,191.58 % Luminescence
same,EC50,[1]; [17],20.6 µM
"CC[C@]1(O)C[C@H]2CN(CCc3c([nH]c4ccccc34)[C@@](C(=O)OC)(c3cc4c(cc3OC)N(C=O)[C@H]3[C@@](O)(C(=O)OC)[C@H](OC(C)=O)[C@]5(CC)C=CCN6CC[C@]43[C@@H]65)C2)C1 [Vincristine, reference compound]",Z-score (LCA primary screening),[1],7.99
same,EMax (% Luminescence),[1]; Clone V cells,198.49 % Luminescence
same,EC50,[1]; [17],0.27 µM
"CCC1=C[C@@H]2CN(C1)Cc1c([nH]c3ccccc13)[C@@](C(=O)OC)(c1cc3c(cc1OC)N(C)[C@H]1[C@@](O)(C(=O)OC)[C@H](OC(C)=O)[C@]4(CC)C=CCN5CC[C@]31[C@@H]54)C2 [Vinorelbine, reference compound]",Z-score (LCA primary screening),[1],8.79
same,EMax (% Luminescence),[1]; Clone V cells,208.53 % Luminescence
same,EC50,[1]; [17],1.55 µM
Plicamycin,Split Luciferase Assay Z-score Set 1,[1]; [10],-1.20
same,Split Luciferase Assay % Lum Set 1,[1]; [11],85.12%
same,Split Luciferase Assay Z-score Set 2,[1]; [12],-1.11
same,Split Luciferase Assay %Lum Set 2,[1]; [13],86.35%
same,Split Luciferase Assay %Lum Avg,[1]; [14],85.73%
same,Luciferase Assay % Lum (full-length luciferase counter-screen),[2]; [15],92.59%
same,Luciferase Assay Z-score (full-length luciferase counter-screen),[2]; [15],-0.95
